{"source": "paper PMC9080489", "about": "“Synthesis and biological evaluation of 2-aryl-benzimidazole derivatives of dehydroabietic acid as novel tubulin polymerization inhibitors” (RSC Advances, 2018)", "system": "SMMC-7721 cells", "experiment": "Annexin V-FITC/PI dual staining assay (apoptosis)", "format": "cell-based, human", "settings": "highest concentration 2.0 μM, 24 h; control 10.12%", "experimental": "In order to investigate whether compound 6j could induce cell apoptosis, SMMC-7721 cells treated with different concentrations of compound 6j were subjected to Annexin V-FITC/propidium iodide (PI) dual staining followed by flow cytometry assay.\nApoptosis was discriminated with the Annexin V-FITC/PI dual staining assay. SMMC-7721 cells were seeded at 1 × 10^5 cells per well in 10% fetal calf serum (FBS)-DMEM into six-well plates and treated with or without compound 6j for 24 h. The cells were detached with 0.25% trypsin, washed twice with ice-cold PBS and then resuspended in 500 μL of 1× binding buffer (0.1 M Hepes/NaOH (pH 7.4), 1.4 M NaCl, 25 mM CaCl2). The solution was transferred into 5 mL culture tubes, and 5 μL of Annexin V-FITC (BD, Pharmingen) and 5 μL of PI were added to each tube. The cells were gently vortexed, and incubated for 30 min at 25 °C in the dark. The analysis was performed on a flow cytometry (Becton-Dickinson FACSCalibur, New York, USA).", "data": [{"smiles": "COC(=O)[C@]1(C)CCC[C@]2(C)c3cc(Br)c4nc(-c5ccc6[nH]ccc6c5)[nH]c4c3CCC12", "note": "(stereo partly shown) [Compound 6j, Methyl 2′-(1H-indol-5-yl)-12-bromo-13,14-imidazolyl-deisopropyl-dehydroabietate]", "values": [{"measurement": "percentage of early and late apoptotic cells", "result": 80.08, "unit": "%"}]}]}
